Assay results from PMC10636171 (Cell Death & Disease, 2023).

Assays:
Experiment in all cases: HTRF/ADP-Glo kinase selectivity panel
Assay type in all cases: biochemical
Details in all cases: 500 nM, read-out: 1D228(%inhibition)@500nM
[1] = molecular target: T1, ABL2 (Homo sapiens, UniProt P42684)
T1 construct: purchased Invitrogen (c-Met, TRKA, TRKB, TRKC)
Experimental: (§1) The compound was serial diluted from 10 mM stock in DMSO, dilute the test compound to 0.1 mM (200 times the specified test concentration). 2 × ATP & Substrate solution and 2 × kinase & Metal solution were prepared using assay buffer; Transfer 25 nL compound to 384 assay plate by Echo 655; After centrifugation, add 2.5 μL 2 × kinase/metal ion solution 384 assay plate, and incubate at 25 °C for 10 min. 2 × XL665 & Antibody solution were prepared with detection buffer; 5 μL of Kinase Detection Reagent was added to the well, and incubated for 60 min at 25 °C; The fluorescence signals of 620 nm (Cryptate) and 665 nm (XL665) were read by microtiter plate reader; […]

[2] = molecular target: T2, BTK (Homo sapiens, UniProt Q06187)
T2 construct: purchased Invitrogen (c-Met, TRKA, TRKB, TRKC)
Experimental: as §1

[3] = molecular target: T3, DDR1 (Homo sapiens, UniProt Q08345)
T3 construct: purchased Invitrogen (c-Met, TRKA, TRKB, TRKC)
Experimental: as §1

[4] = molecular target: T4, DDR2 (Homo sapiens, UniProt Q16832)
T4 construct: purchased Invitrogen (c-Met, TRKA, TRKB, TRKC)
Experimental: as §1

[5] = molecular target: T5, EPHA1 (Homo sapiens, UniProt P21709)
T5 construct: purchased Invitrogen (c-Met, TRKA, TRKB, TRKC)
Experimental: as §1

[6] = molecular target: T6, EPHA2 (Homo sapiens, UniProt P29317)
T6 construct: purchased Invitrogen (c-Met, TRKA, TRKB, TRKC)
Experimental: as §1

[7] = molecular target: T7, EPHA3 (Homo sapiens, UniProt P29320)
T7 construct: purchased Invitrogen (c-Met, TRKA, TRKB, TRKC)
Experimental: as §1

[8] = molecular target: T8, EPHA4 (Homo sapiens, UniProt P54764)
T8 construct: purchased Invitrogen (c-Met, TRKA, TRKB, TRKC)
Experimental: as §1

[9] = molecular target: T9, EPHA5 (Homo sapiens, UniProt P54756)
T9 construct: purchased Invitrogen (c-Met, TRKA, TRKB, TRKC)
Experimental: as §1

[10] = molecular target: T10, EPHA6 (Homo sapiens, UniProt Q9UF33)
T10 construct: purchased Invitrogen (c-Met, TRKA, TRKB, TRKC)
Experimental: as §1

[11] = molecular target: T11, EPHB1 (Homo sapiens, UniProt P54762)
T11 construct: purchased Invitrogen (c-Met, TRKA, TRKB, TRKC)
Experimental: as §1

[12] = molecular target: T12, EPHB3 (Homo sapiens, UniProt P54753)
T12 construct: purchased Invitrogen (c-Met, TRKA, TRKB, TRKC)
Experimental: as §1

[13] = molecular target: T13, EPHB4 (Homo sapiens, UniProt P54760)
T13 construct: purchased Invitrogen (c-Met, TRKA, TRKB, TRKC)
Experimental: as §1

[14] = molecular target: T14, FER (Homo sapiens, UniProt P16591)
T14 construct: purchased Invitrogen (c-Met, TRKA, TRKB, TRKC)
Experimental: as §1

[15] = molecular target: T15, FGFR1 (Homo sapiens, UniProt P11362)
T15 construct: purchased Invitrogen (c-Met, TRKA, TRKB, TRKC)
Experimental: as §1

[16] = molecular target: T16, FGFR2 (Homo sapiens, UniProt P21802)
T16 construct: purchased Invitrogen (c-Met, TRKA, TRKB, TRKC)
Experimental: as §1

[17] = molecular target: T17, FGR (Homo sapiens, UniProt P09769)
T17 construct: purchased Invitrogen (c-Met, TRKA, TRKB, TRKC)
Experimental: as §1

[18] = molecular target: T18, FLT4 (Homo sapiens, UniProt P35916)
T18 construct: purchased Invitrogen (c-Met, TRKA, TRKB, TRKC)
Experimental: as §1

[19] = molecular target: T19, FYN [a] (Homo sapiens, UniProt P06241)
T19 construct: purchased Invitrogen (c-Met, TRKA, TRKB, TRKC)
Experimental: as §1

[20] = molecular target: T20, FYN [b] (Homo sapiens, UniProt P06241)
T20 construct: purchased Invitrogen (c-Met, TRKA, TRKB, TRKC)
Experimental: as §1

[21] = molecular target: T21, Her4 (Homo sapiens, UniProt Q15303)
T21 construct: purchased Invitrogen (c-Met, TRKA, TRKB, TRKC)
Experimental: as §1

[22] = molecular target: T22, IGF1R (Homo sapiens, UniProt P08069)
T22 construct: purchased Invitrogen (c-Met, TRKA, TRKB, TRKC)
Experimental: as §1

[23] = molecular target: T23, INSR (Homo sapiens, UniProt P06213)
T23 construct: purchased Invitrogen (c-Met, TRKA, TRKB, TRKC)
Experimental: as §1

[24] = molecular target: T24, IRR (Homo sapiens, UniProt P14616)
T24 construct: purchased Invitrogen (c-Met, TRKA, TRKB, TRKC)
Experimental: as §1

[25] = molecular target: T25, JAK1 (Homo sapiens, UniProt P23458)
T25 construct: purchased Invitrogen (c-Met, TRKA, TRKB, TRKC)
Experimental: as §1

[26] = molecular target: T26, JAK3 (Homo sapiens, UniProt P52333)
T26 construct: purchased Invitrogen (c-Met, TRKA, TRKB, TRKC)
Experimental: as §1

[27] = molecular target: T27, KIT (Homo sapiens, UniProt P10721)
T27 construct: purchased Invitrogen (c-Met, TRKA, TRKB, TRKC)
Experimental: as §1

[28] = molecular target: T28, MER (Homo sapiens, UniProt Q12866)
T28 construct: purchased Invitrogen (c-Met, TRKA, TRKB, TRKC)
Experimental: as §1

[29] = molecular target: T29, MET (Homo sapiens, UniProt P08581)
T29 construct: purchased Invitrogen (c-Met, TRKA, TRKB, TRKC)
Experimental: as §1

[30] = molecular target: T30, PDGFRα (Homo sapiens, UniProt P16234)
T30 construct: purchased Invitrogen (c-Met, TRKA, TRKB, TRKC)
Experimental: as §1

[31] = molecular target: T31, RON (Homo sapiens, UniProt Q04912)
T31 construct: purchased Invitrogen (c-Met, TRKA, TRKB, TRKC)
Experimental: as §1

[32] = molecular target: T32, ROS1 (Homo sapiens, UniProt P08922)
T32 construct: purchased Invitrogen (c-Met, TRKA, TRKB, TRKC)
Experimental: as §1

[33] = molecular target: T33, SYK (Homo sapiens, UniProt P43405)
T33 construct: purchased Invitrogen (c-Met, TRKA, TRKB, TRKC)
Experimental: as §1

[34] = molecular target: T34, TEC (Homo sapiens, UniProt P42680)
T34 construct: purchased Invitrogen (c-Met, TRKA, TRKB, TRKC)
Experimental: as §1

[35] = molecular target: T35, TIE2 (Homo sapiens, UniProt Q02763)
T35 construct: purchased Invitrogen (c-Met, TRKA, TRKB, TRKC)
Experimental: as §1

[36] = molecular target: T36, TRKB (Homo sapiens, UniProt Q16620)
T36 construct: purchased Invitrogen
Experimental: as §1

[37] = molecular target: T37, TYK2 (Homo sapiens, UniProt P29597)
T37 construct: purchased Invitrogen (c-Met, TRKA, TRKB, TRKC)
Experimental: as §1

T11 sequence (P54762 18-984): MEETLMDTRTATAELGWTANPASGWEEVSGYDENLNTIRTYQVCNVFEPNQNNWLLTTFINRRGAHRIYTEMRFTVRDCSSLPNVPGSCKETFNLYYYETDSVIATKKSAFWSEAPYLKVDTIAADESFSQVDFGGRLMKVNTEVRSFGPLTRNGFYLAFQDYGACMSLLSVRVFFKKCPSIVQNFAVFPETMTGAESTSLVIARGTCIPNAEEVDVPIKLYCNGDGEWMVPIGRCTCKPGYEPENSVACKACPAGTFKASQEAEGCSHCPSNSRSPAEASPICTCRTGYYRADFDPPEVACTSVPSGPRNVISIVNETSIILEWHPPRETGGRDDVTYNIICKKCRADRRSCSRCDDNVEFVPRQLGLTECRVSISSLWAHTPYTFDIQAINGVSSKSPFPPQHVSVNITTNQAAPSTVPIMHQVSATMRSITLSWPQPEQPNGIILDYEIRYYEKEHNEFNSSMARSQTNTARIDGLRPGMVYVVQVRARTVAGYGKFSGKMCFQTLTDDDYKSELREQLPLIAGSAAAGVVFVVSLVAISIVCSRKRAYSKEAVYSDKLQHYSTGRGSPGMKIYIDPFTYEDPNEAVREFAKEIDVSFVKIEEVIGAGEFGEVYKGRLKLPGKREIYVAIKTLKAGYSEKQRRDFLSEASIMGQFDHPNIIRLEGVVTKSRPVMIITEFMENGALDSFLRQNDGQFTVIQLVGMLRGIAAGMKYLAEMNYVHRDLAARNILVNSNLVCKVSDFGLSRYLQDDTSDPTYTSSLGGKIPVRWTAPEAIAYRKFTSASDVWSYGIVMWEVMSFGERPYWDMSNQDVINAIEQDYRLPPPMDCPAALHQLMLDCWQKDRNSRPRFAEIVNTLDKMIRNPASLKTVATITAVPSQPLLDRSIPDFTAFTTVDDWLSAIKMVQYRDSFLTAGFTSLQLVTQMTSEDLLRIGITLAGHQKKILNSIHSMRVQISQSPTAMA
T29 sequence (P08581 25-1390): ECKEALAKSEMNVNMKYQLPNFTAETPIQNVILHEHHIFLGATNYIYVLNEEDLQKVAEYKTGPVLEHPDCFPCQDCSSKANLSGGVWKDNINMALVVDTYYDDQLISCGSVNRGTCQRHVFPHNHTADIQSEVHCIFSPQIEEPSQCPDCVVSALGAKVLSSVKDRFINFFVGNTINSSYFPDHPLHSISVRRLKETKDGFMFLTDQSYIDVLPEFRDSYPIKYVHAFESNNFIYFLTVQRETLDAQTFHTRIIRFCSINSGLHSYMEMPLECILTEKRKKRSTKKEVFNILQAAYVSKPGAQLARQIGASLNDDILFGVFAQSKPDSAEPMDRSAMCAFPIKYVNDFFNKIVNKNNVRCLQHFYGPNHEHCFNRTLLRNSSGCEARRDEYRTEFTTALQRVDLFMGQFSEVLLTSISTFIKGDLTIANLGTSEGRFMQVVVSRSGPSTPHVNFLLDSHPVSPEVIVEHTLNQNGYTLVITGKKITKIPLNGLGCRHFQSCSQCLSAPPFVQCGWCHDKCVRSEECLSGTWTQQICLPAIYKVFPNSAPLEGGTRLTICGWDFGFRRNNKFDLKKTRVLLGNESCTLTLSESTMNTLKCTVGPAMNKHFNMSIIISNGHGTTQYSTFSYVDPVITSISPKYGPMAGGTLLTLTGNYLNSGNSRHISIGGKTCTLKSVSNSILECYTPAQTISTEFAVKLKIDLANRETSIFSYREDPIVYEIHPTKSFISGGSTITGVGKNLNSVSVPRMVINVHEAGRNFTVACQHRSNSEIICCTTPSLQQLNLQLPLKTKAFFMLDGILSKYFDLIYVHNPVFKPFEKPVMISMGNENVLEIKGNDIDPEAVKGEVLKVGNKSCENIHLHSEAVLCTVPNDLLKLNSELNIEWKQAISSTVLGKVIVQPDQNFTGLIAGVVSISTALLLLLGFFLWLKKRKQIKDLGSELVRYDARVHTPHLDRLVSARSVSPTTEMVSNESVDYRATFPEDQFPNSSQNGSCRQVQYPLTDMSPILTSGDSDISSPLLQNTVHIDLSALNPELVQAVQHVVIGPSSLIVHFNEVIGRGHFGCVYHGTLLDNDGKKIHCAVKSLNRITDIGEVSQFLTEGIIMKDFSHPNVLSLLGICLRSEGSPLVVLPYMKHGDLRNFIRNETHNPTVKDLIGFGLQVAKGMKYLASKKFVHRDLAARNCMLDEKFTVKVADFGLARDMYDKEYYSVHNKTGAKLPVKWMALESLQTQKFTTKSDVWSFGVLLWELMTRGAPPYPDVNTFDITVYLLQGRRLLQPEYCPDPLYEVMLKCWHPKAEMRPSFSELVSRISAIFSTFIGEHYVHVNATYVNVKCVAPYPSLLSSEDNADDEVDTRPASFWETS
T20 sequence (P06241 1-534 isoform P06241-2): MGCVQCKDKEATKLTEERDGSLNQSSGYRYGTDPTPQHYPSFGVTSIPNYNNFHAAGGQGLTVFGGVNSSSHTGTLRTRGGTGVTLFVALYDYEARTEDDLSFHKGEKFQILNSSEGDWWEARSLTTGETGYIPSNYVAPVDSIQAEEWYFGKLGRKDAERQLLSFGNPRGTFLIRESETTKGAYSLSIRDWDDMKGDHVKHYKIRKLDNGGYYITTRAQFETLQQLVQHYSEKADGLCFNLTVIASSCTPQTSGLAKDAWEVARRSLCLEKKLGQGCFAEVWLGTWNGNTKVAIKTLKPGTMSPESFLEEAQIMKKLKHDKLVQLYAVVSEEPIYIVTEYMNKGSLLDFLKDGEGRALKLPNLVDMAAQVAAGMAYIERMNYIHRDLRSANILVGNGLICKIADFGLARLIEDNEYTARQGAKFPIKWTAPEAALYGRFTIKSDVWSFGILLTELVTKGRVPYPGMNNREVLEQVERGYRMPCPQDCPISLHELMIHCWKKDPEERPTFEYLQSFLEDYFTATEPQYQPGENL
T13 sequence (P54760 16-987): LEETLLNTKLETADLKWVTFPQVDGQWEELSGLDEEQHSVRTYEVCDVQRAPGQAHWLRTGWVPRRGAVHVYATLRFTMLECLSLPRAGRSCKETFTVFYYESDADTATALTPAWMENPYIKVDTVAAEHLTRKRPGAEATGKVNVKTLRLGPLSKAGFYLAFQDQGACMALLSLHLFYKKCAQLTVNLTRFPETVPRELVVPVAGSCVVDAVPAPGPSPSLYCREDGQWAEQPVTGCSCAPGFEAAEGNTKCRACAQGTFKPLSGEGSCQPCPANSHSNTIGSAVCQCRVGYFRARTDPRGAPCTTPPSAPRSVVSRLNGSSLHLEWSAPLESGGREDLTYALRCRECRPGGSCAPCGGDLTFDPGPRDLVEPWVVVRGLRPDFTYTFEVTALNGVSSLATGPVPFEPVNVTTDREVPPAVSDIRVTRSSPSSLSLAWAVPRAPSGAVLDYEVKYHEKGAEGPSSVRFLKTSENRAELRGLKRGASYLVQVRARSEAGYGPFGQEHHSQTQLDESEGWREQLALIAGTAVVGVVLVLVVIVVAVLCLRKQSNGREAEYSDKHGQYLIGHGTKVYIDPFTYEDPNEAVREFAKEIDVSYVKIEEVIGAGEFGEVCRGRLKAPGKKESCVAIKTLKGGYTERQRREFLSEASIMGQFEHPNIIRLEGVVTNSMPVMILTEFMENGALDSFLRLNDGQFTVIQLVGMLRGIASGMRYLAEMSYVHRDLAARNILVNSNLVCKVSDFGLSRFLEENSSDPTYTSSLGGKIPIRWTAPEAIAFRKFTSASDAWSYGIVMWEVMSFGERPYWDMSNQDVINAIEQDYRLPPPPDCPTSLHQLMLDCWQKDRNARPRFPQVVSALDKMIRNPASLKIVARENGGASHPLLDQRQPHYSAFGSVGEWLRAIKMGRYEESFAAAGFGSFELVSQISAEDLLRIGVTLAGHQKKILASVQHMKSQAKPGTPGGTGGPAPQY
T1 sequence (P42684 whole entry): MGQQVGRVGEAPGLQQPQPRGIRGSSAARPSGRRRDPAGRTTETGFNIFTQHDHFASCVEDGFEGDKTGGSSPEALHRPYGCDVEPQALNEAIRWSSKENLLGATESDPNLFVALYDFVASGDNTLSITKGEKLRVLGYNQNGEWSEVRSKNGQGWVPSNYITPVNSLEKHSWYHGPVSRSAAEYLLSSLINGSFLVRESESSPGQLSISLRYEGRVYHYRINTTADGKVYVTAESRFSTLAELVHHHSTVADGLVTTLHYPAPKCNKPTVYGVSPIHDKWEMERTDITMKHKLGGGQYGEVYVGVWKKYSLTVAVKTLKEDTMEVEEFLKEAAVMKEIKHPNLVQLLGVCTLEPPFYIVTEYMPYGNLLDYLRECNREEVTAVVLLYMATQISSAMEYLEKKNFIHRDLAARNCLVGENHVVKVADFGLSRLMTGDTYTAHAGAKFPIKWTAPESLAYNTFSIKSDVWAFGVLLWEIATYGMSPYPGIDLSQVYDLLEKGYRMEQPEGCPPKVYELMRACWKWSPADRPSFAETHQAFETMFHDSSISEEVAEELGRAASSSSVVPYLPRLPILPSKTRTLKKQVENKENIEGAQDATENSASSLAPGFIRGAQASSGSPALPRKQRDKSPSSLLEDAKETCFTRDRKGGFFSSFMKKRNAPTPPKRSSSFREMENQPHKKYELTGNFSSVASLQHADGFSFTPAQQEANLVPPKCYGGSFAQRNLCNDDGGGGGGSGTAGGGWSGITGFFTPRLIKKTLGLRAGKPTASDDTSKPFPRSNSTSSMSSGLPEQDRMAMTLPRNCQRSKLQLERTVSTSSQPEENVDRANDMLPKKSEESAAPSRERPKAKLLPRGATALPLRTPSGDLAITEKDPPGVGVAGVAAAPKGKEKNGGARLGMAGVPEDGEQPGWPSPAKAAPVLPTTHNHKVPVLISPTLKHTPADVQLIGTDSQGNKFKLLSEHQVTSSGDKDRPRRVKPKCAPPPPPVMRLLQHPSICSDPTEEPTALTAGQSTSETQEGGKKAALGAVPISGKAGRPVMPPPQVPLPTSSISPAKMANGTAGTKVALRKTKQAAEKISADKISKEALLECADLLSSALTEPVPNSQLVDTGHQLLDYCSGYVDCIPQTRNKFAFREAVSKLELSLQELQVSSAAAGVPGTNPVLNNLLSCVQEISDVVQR

## [2H][C@@](C)(c1cccc(-c2ncc(OCC3CCN(C)CC3)cn2)c1)n1nc(-c2cccc(C#N)c2)ccc1=O [1D228]
[1]
  inhibition at 0.5 µM: 4.45%
[2]
  inhibition at 0.5 µM: -3.81%
[3]
  inhibition at 0.5 µM: -11.8%
[4]
  inhibition at 0.5 µM: -3.98%
[5]
  inhibition at 0.5 µM: -1.53%
[6]
  inhibition at 0.5 µM: -0.798%
[7]
  inhibition at 0.5 µM: -11.8%
[8]
  inhibition at 0.5 µM: -14.7%
[9]
  inhibition at 0.5 µM: 3.74%
[10]
  inhibition at 0.5 µM: -1.78%
[11]
  inhibition at 0.5 µM: -6.48%
[12]
  inhibition at 0.5 µM: 5.68%
[13]
  inhibition at 0.5 µM: 5.08%
[14]
  inhibition at 0.5 µM: -13.3%
[15]
  inhibition at 0.5 µM: 1.72%
[16]
  inhibition at 0.5 µM: 1.04%
[17]
  inhibition at 0.5 µM: -20.7%
[18]
  inhibition at 0.5 µM: -3.03%
[19]
  inhibition at 0.5 µM: -7.78%
[20]
  inhibition at 0.5 µM: 10.9%
[21]
  inhibition at 0.5 µM: 2.21%
[22]
  inhibition at 0.5 µM: 5.26%
[23]
  inhibition at 0.5 µM: 18.6%
[24]
  inhibition at 0.5 µM: 3.88%
[25]
  inhibition at 0.5 µM: 7.19%
[26]
  inhibition at 0.5 µM: 0.193%
[27]
  inhibition at 0.5 µM: -4.5%
[28]
  inhibition at 0.5 µM: 84.1%
[29]
  inhibition at 0.5 µM: 98.4%
[30]
  inhibition at 0.5 µM: 8.21%
[31]
  inhibition at 0.5 µM: 1.38%
[32]
  inhibition at 0.5 µM: 7.05%
[33]
  inhibition at 0.5 µM: 2.47%
[34]
  inhibition at 0.5 µM: 8.29%
[35]
  inhibition at 0.5 µM: -2.64%
[36]
  inhibition at 0.5 µM: 97.1%
[37]
  inhibition at 0.5 µM: 4.51%
